One assay relates to Panc02 and SKOV3 cells. The assay can be described thus: Assay for inhibition of ATP production (FIGS. 8A and 8B). Format: cell-based. The conditions noted are these: 48 hours treatment, 1.5 to 10000 nM. As to the method:
The assay determines the amount of ATP in cells in culture.
Cells were plated at 4,000 per well in 96-well plate in a medium of high glucose DMEM (PAN) supplemented with 10% FBS (PAN), 2 mM glutamine-alanine (PAN), 2 mM pyruvate (Sigma) and 10 mL/L penicillin-streptomycin and grown at 37° C. in 0.5% O2, 5% CO2 and 75% humidity. For hypoxia, cells were grown and treated in the Whitley H35 Hypoxystation (Don Whitley Scientific) at 37° C. in 0.5% O2, 5% CO2 and 75% humidity. The next day, cells were induced with test compounds (FIG. 1: compounds of examples 3/16, 3/8, 10 at 10000, 3333, 1111, 370, 123, 41, 14, 5 and 1.5 nM; FIGS. 8A and 8B: compounds of example 3/19, 30 and 30/2 at 10000, 3333, 1111, 370, 123, 41, 14, 5 and 1.5 nM), as well as with vehicle (DMSO) only, for 48 hours. After this time, the medium was removed from the cells and intracellular ATP levels were determined using the Promega CellTiter-Glo 2.0 assay protocol (Promega, G9241). To estimate the effect of compounds on the ATP production, sample values were compared to the values of DMSO only. IC50 values were generated by plotting the luciferase counts against compound concentration.

The next assay addresses p70-S6K (Thr389) (Homo sapiens (Human), UniProt P23443). In words: Western Blot analysis of p70-S6K phosphorylation. Format: cell-based. The settings on record: HeLa cells, 24 hours, 10, 30 and 100 nM, also with Bafilomycin A, normoxic condition, FIG. 5. The method, then: Western Blot analysis was used to detect amounts of specific protein in differently treated cells. Proteins are separated by size, transferred onto a nitrocellulose membrane and incubated with protein specific antibodies. The density of the observed band is proportional to the amount of the specific protein inside the cell.
Cells were plated at 4×10^6 (for hypoxia) or 3×10^6 (for normoxia) cells per […] plate in medium of high glucose DMEM (PAN) supplemented with 10% FBS (PAN), 2 mM glutamine-alanine (PAN), 2 mM pyruvate (Sigma) and 10 ml/L penicillin-streptomycin (PAN), and grown at 37° C. in 0.5% O2, 5% CO2 and 75% humidity. For hypoxia, cells were grown and treated in the Whitley H35 Hypoxystation (Don Whitley Scientific) at 37° C. in 0.5% O2, 5% CO2 and 75% humidity. Next day, the cells were treated with test compounds (FIG. 4: compounds of example 3/8 and 10 at concentrations 0.1, 0.3 and 1 μM, Bafilomycin A at 20 nM; FIG. 5: compounds of example 3/16, 3/8 and 10 at concentrations 10, 30 and 100 nM, Bafilomycin A at 20 nM), as well as with vehicle (DMSO) only, for 24 h. […] Protein concentration of the sample was measured using the DC Protein Assay Kit (Biorad, 5000112), 22 μg of protein extract per well was loaded onto a precast SDS page gel (Biorad, 1704273). […] The chemiluminescence was measured using chemiluminescent substrate (#34580, Thermo Scientific).
For orientation: A western blot detects proteins with antibodies after separation by electrophoresis.

The structures appear in SMILES notation.

As for `O=C(Nc1ccc(F)c(NC(=O)c2cc3ccc(OCCCN4CCCC4)cc3s2)c1)c1ccc2c(c1)OCCO2` [3/8], the ATP production level entry with Panc02 and SKOV3 cells is listed as “dose-dependent reduction”. The “p70-S6K phosphorylation (Thr389)” value on p70-S6K (Thr389) is “dose-dependent induction”.

For the compound `Cc1ccc(NC(=O)c2ccc3c(c2)OCCO3)cc1NC(=O)c1cc2cccnc2s1` [3/16], in the assay on Panc02 and SKOV3 cells, the ATP production level entry is reported as “dose-dependent reduction”. The “p70-S6K phosphorylation (Thr389)” value on p70-S6K (Thr389) is “dose-dependent induction”.
